US9732067B2, “Compounds and methods for activating the apoptotic arm of the unfolded protein response” (University of Kansas, priority 2012, dated 2017)
Read-outs that look alike come from different tables or passages of the source. Each block holds one compound with its values, some of them ahead of it.

Experiments:
[1] = system: PERK-eIF2α-CHOP (apoptotic) arm of the Unfolded Protein Response pathway; assay: UPR-CHOP primary assay (CHO-CHOP luciferase reporter); format: cell-based
Experimental: The purpose of this assay was to detect activators of the PERK-eIF2α-CHOP (apoptotic) arm of the Unfolded Protein Response pathway.
Cells were passaged twice a week. […] Once the cells had reached confluency, old medium was aspirated and the flasks were washed with 20 mL DPBS per T225 flask. Cells were left in DPBS for about 30 seconds. Subsequently, 6.5 mL 0.05% trypsin solution was added into the flask and the flask was rocked gently so that the solution covered the surface. The cells were allowed to detach by incubating at room temperature for about 4 minutes. The flask was washed with […] fresh growth media and the cell suspension was collected in a 50 mL sterile conical tube. The collected cells were centrifuged at 900 rpm for 5 minutes and re-suspended in 1 mL fresh growth media. An additional 19 mL of growth media was added and the tube was mixed gently. The cell suspension was filtered with a cell strainer and the cells were counted.
As above, cells were grown to confluency, washed, and detached with 5 mL trypsin solution for 4 minutes at room temperature. The flask was washed with 25 mL fresh growth media and the cell suspension was collected in a 50 mL sterile conical tube. The cells were centrifuged at 500 rpm for 10 minutes and re-suspended carefully in 1 mL fresh assay medium. An additional 19 mL of assay media was added the cells were mixed gently. The cell suspension was filtered with a cell strainer and the number of cells was counted. Cell density was adjusted to 1.0×10^5 cells/mL in medium.
On day 1, cell suspensions were prepared and 500 cells in 5 μL of assay media were plated in the wells of columns 1-48 of a 1536-well assay plate. The plates were centrifuged at 500 rpm for 1 minute and subsequently incubated at 37° C., 100% relative humidity, 5% CO2 for 16-18 hours.
[…] […] The plates were centrifuged at 1000 rpm for 1 minute and subsequently incubated at 37° C., 100% relative humidity, 5% CO2 for 6 hours.
Following the 6-hour incubation the plate was incubated for 10 minutes at room temperature and 3 μL of STEADY-GLO was added to each well. The plates were centrifuged at 2000 rpm for 2 minutes and subsequently incubated at room temperature for 10 minutes. Luminescence was measured with a luminometer.
The MLPCN library of approximately 330,000 compounds was tested in the UPR-CHOP primary screen utilizing a luciferase-based reporter expressed in a CHO cell line to identify activators of the CHOP apoptotic pathway. […]

[2] = system: IRE1/XBP1 (adaptive) UPR sub-pathway; assay: UPR XBP1 assay (CHO-XBP1-luciferase reporter cell line); format: cell-based
Experimental: A high-throughput screen of the NIH Molecular Libraries Small Molecule Repository (MLSMR) of >350,000 compounds was carried out using complementary cell-based reporter assays using stably transfected CHO-K1 cells that specifically identify activators of the PERK/eIF2α/CHOP (apoptotic), or the IRE1/XBP1 (adaptive) UPR sub-pathways.
The liquid samples were first confirmed at a single-point concentration of 10 μM in the […]. Of the liquid samples, 674 compounds were confirmed to have at least 32% activity at a 10 μM assay concentration. The confirmed compounds were further tested in dose response in the UPR-CHOP primary assay to obtain EC50 values. In addition, confirmed compounds were also dosed out in the CHO-XBP1-luciferase reporter cell line to identify compounds that were selective for the CHOP apoptotic over the adaptive XBP1 pathway.
The high throughput screening effort and subsequent validation produced two chemotypes, which were further explored by SAR analysis for potency, selectivity, the absence of reactive functionality, synthetic accessibility, physiochemical properties, and hit rate in unrelated PUBCHEM assays. SAR testing of re-constituted powders encompassed dose response testing of compounds in two assays: UPR-CHOP and UPR-XBP1 assays.

MEF with wild-type CHOP = assay: Proliferation / cytotoxicity (ATPLite) in MEF with wild-type CHOP; format: cell-based, mouse; conditions: Mus musculus; Table 5; MEF, ATPLite
Experimental: (§1) Several of the analogs derived from these changes were evaluated in secondary assays as they met the preliminary probe criteria for UPR-CHOP and UPR-XBP1 activity. Select compounds were assessed in a dose response manner for the ability to suppress proliferation in both the CHOP wild-type and CHOP knockout murine embryonic fibroblasts (−/− MEF KO CHOP)(Table 2).
(§2) It was determined whether ML291 and ML291 congeners would induce cell death (cytotoxicity as measured by ATPLite®, which measures production of ATP from living cells) in cells where these pathways are operant, but not activate them in the absence of the pathways.

−/− MEF KO CHOP = assay: Proliferation / cytotoxicity (ATPLite) in MEF with CHOP KO; format: cell-based; conditions: Mus musculus; Table 5; MEF, ATPLite
Experimental: as §1, §2

[3] = system: CHOP (apoptotic) and XBP1 (adaptive) arms of the UPR; conditions: prior screen, non-selective hits; cited from earlier work
chickens = conditions: grain from treated crops; cited from earlier work
[4] = Cricetulus griseus, read-out: CHOP EC50
[5] = Table 9, average of four runs, F12 HAMs, 10% hi-FBS, read-out: EC50 UPR CHOP Assay
[6] = Table 9, average of four runs, F12 HAMs, 10% hi-FBS, read-out: EC50 UPR XBP1 Assay

CHOP potency / activity [1]: low micromolar | EC50 ([2]; listed as SID104222717, read-out: XBP1 EC50): > 71 µM | EC50 ([2]; read-out: XBP1 EC50): 70 to 80 µM
Compound: O=C(Nc1ccc(S(=O)(=O)N2CCOCC2)cc1)c1ccc([N+](=O)[O-])o1 [Entry 1 (Table 1)]
selectivity (XBP1 over CHOP) [1]: 35 fold | EC50 [1, 4]: 2.02 µM

Compound: CC1CCN(S(=O)(=O)c2ccc(NC(=O)c3ccc([N+](=O)[O-])o3)cc2)CC1 [Entry 12 (Table 1), N-(4-((4-methylpiperidin-1-yl)sulfonyl)phenyl)-5-nitrofuran-2-carboxamide]
IC50 (MEF with wild-type CHOP): 4.57 ± 1.24 µM | IC50 (−/− MEF KO CHOP): 16.3 ± 0.99 µM

Compound: CC1(C)CCN(S(=O)(=O)c2ccc(NC(=O)c3ccc([N+](=O)[O-])o3)cc2)CC1 [Entry 13 (Table 1), N-(4-((4,4-dimethylpiperidin-1-yl)sulfonyl)phenyl)-5-nitrofuran-2-carboxamide]
EC50 [1, 4]: 0.5 µM | XBP1 liability [2]: no discernable XBP1 liability | IC50 (MEF with wild-type CHOP): 3.02 ± 0.6 µM | IC50 (−/− MEF KO CHOP): 9.17 ± 3.34 µM

CHOP potency / activity [1]: low micromolar | EC50 ([2]; read-out: XBP1 EC50): 70 to 80 µM
Compound: O=C(Nc1nc2c(F)cc(F)cc2s1)c1ccccn1 [SID 104222735]

EC50 [2, 6]: > 80 µM
Compound: O=C(Nc1ccc(S(=O)(=O)N2CCC(F)CC2)cc1)c1ccc([N+](=O)[O-])o1 [Analog 3]
EC50 [1, 5]: 0.43 µM

Compound: O=C(Nc1ccc(S(=O)(=O)N2CCC(F)CC2)cc1)c1ccc([N+](=O)[O-])o1 [Entry 10 (Table 1), N-(4-((4-fluoropiperidin-1-yl)sulfonyl)phenyl)-5-nitrofuran-2-carboxamide]
IC50 (MEF with wild-type CHOP): 17.5 ± 2.69 µM | IC50 (−/− MEF KO CHOP): > 20 µM

EC50 [2, 6]: > 80 µM
Compound: CC1CCN(S(=O)(=O)c2ccc(NC(=O)c3ccc([N+](=O)[O-])o3)cc2)CC1 [Analog 1]
EC50 [1, 5]: 0.76 µM

Compound: O=C(Nc1ccc(S(=O)(=O)N2CCOCC2)cc1)c1ccc([N+](=O)[O-])s1 [Entry 2 (Table 3)]
loss in CHOP potency versus 5-nitro-2-furan parent [1]: 6 fold

Compound: CCN(CC)C(=S)SSC(=S)N(CC)CC [disulfiram, bis(diethylthiocarbamoyl)disulfide]
induction of the UPR arms [3]: potently induce both the CHOP (apoptotic) and XBP1 (adaptive) arms of the UPR

Compound: CN(C)C(=S)SSC(=S)N(C)C [NSC-1771]
induction of the UPR arms [3]: potently induce both the CHOP (apoptotic) and XBP1 (adaptive) arms of the UPR | toxicity in chickens (chickens): cause dyschondoplasia in the offspring of chickens

EC50 [2, 6]: > 80 µM
Compound: CC(C)(C)C1CCN(S(=O)(=O)c2ccc(NC(=O)c3ccc([N+](=O)[O-])o3)cc2)CC1 [Analog 4]
EC50 [1, 5]: 0.65 µM

Compound: CC(C)(C)C1CCN(S(=O)(=O)c2ccc(NC(=O)c3ccc([N+](=O)[O-])o3)cc2)CC1 [Entry 14 (Table 1), N-(4-((4-tert-butylpiperidin-1-yl)sulfonyl)phenyl)-5-nitrofuran-2-carboxamide]
IC50 (MEF with wild-type CHOP): 1.36 ± 0.54 µM | IC50 (−/− MEF KO CHOP): 2.05 ± 0.29 µM

Compound: O=C(Nc1ccc(S(=O)(=O)N2CCCCC2)cc1)c1ccc([N+](=O)[O-])o1 [Entry 8 (Table 1), N-(4-((piperidin-1-yl)sulfonyl)phenyl)-5-nitrofuran-2-carboxamide]
IC50 (MEF with wild-type CHOP): 7.84 ± 1.2 µM | IC50 (−/− MEF KO CHOP): > 20 µM

EC50 [2, 6]: > 80 µM
Compound: CC1(C)CCN(S(=O)(=O)c2ccc(NC(=O)c3ccc([N+](=O)[O-])o3)cc2)CC1 [Analog 5]
EC50 [1, 5]: 0.77 µM
